Measurements taken from patent US20160015786A1, “MOBILIZING AGENTS AND USES THEREFOR” (MATER MEDICAL RESEARCH INSTITUTE LIMITED, priority 2013, published 2016).

Experiments:
[1] = test system: hematopoietic stem and progenitor cells; assay: Phenotypic HSCs, HSPCs and myeloid progenitors in blood, spleen and bone marrow by flow cytometry; format: in vivo, C57BL/6 mice
Procedure: Additional HIF-α potentiating agents in the form of PHD inhibitors were tested for their ability to enhance mobilization induced by G-CSF. Compound A, Compound B or Compound C, were tested in male, 7 weeks-old C57BL/6 mice. Mice were injected twice daily sub-cutaneously with rhuG-CSF at a dose of 125 μg/kg per injection for four days. Mice were gavaged with 20 mg/kg Compound A, Compound B, Compound C or vehicle control once daily for three days beginning on day 1 of the experiment.
At the end of treatment, blood was harvested by cardiac puncture, mice were sacrificed by cervical dislocation and spleens harvested. Femurs were removed, cleaned and the bone marrow was flushed with 1 mL PBS+10% newborn calf serum (NCS).
The number of phenotypic hematopoietic stem and progenitor cells remaining in the bone marrow following treatment was measured by flow cytometry using antibodies specific for lineage markers (CD3, CD5, CD45R/B220, F4/80, Gr1, CD41, Ter119), Sca-1, Kit, CD48 and CD150. Similarly, the number of phenotypic hematopoietic stem cells mobilized into the blood and spleen were measured. Colony assays were also performed on blood and spleen to determine the number of colony forming cells per mL of blood and per spleen. All results are presented as mean f standard deviation with n=6 per groups. Levels of significance for differences were calculated using the Student's t-test.
All procedures were approved by the animal experimentation ethics committee of the University of Queensland. All experiments were performed on nine to twelve-week old C57BL/6 male mice or genetically modified mice back-crossed at least 10 times into C57BL/6. Recombinant human G-CSF (Amgen, Thousand Oaks, Calif.) was injected twice daily subcutaneously at 125 μg/kg per injection for up to 4 consecutive days. Plerixafor (AMD3100 octohydrochloride, Tocris Bioscience, Bristol, UK) was injected intraperitoneally as a single 16 mg/kg dose corresponding to 10 mg/kg of AMD3100 base. Tissues were harvested 1 h after Plerixafor administration. […] Compounds H and J were administered at 60 mg/kg and Compound K was administered at 100 mg/kg. Control mice were injected with an equivalent volume of saline. At specified time-points, mice were anesthetized with isoflurane before cardiac puncture to harvest blood. Mice were then euthanized by cervical dislocation and BM and bones harvested.
Following flushing with PBS plus 2% NCS, enriched central BM cells were pelleted at 370×g for 5 minutes at 4° C. and resuspended in CD16/CD32 hybridoma 2.4G2 supernatant to block IgGFc receptors. HSCs were stained with the biotinylated lineage antibody cocktail (CD3, CD5, B220, CD11b, Gr-1, Ter119) and biotinylated CD41 together with streptavidin (SAV)-Pacific Blue, anti-Sca-1-PECY7, anti-KIT-APC, CD48-FITC and CD150-PE as previously described (17). Data were acquired on a CyAn (Dako Cytomation) flow cytometer and analyzed following compensation with single color controls using FlowJo software (Tree Star, Ashland, Oreg.).

HIF-1α protein = assay: Western blot of bone marrow cell lysates for HIF-1α stabilization in treated mice; format: in vivo, C57Bl/6 mice; conditions: FIG. 1A
Source text: FIGS. 1A, 1B, 1C, and 1D are graphical representations showing the effect of Compound X and G-CSF on HIF-1α protein and CFC mobilization. (1A) Western blot analysis of bone marrow (BM) cell lysates from mice treated with saline (Saline), with Compound X for 3 days (X3), with G-CSF for 2 days (G2) or with both Compound X and G-CSF (G2X3) for presence of HIF-1α and β-actin. Each lane represents a different mouse. […] (1D) Time-course numbers of CFC per mL blood or per spleen for mice treated with Plerixafor with or without Compound X. Mice were treated with Plerixafor for 1 hour (P1) together with Compound X for 1, 2, 3 or 4 days (P1X1-P1X4). Data are mean±SD of 6 mice per condition. * p<0.05; ** p<0.01; *** p<0.001.
To evaluate whether pharmacological stabilization of HIF-1α protein would enhance HSC mobilization in response to G-CSF, C57Bl/6 mice were treated with recombinant human G-CSF (rhuG-CSF) twice daily for 1-3 days together with a PHD inhibitor, Compound X, daily for 3 days. […] Mobilization of colony-forming cells (CFCs) to the blood and spleen were measured (FIG. 1B). […] To assess the optimum duration of Compound X treatment, Compound X was administered for 1-4 days and G-CSF for the last 2 days before tissue sampling (FIG. 1C).
All procedures were approved by the animal experimentation ethics committee of the University of Queensland. […]

[2] = Compound X added to 2 days G-CSF plus Plerixafor, P<0.01
[3] = G-CSF 2 days together with Compound X, p<0.005

Structure (SMILES): O=C(O)CNC(=O)c1ncc2cc(Sc3ccccc3)ccc2c1O [Compound X, [(4-Hydroxy-7-phenylsulfanyl-isoquinoline-3-carbonyl)-amino]-acetic acid]
- boost of mobilization of HSPCs in the blood [1, 2]: 2.5 fold
- boost of mobilization of HSPCs in the spleen [1, 2]: 4 fold
- boost of mobilization of phenotypic HSCs [1, 2]: 3 fold
- number of phenotypic HSCs and HSPCs in the blood ([1]; Compound X added to 4 days G-CSF and Plerixafor, P<0.001): dramatically increased
- number of Lin−Sca1+Kit+ HSPCs in spleen versus G-CSF alone [1, 3]: tripled
- number of Lin−Sca1+Kit+ HSPCs in the blood versus G-CSF alone [1, 3]: doubled
- increase in number of phenotypic HSCs versus G-CSF alone ([1]; G-CSF 2 days together with Compound X, p<0.005, FIG. 2C-D): 3 fold
- stabilization of HIF-1α protein in bone marrow leukocytes (HIF-1α protein; Compound X daily for 3 days): stabilization of HIF-1α protein was demonstrated
- stabilization of HIF-1α protein compared to G-CSF alone (HIF-1α protein; Compound X in combination with G-CSF): significantly increased
